Results as given in patent US9555039B2, “Piperidine derivatives and compositions for the inhibition of nicotinamide phosphoribosyltransferase (NAMPT)” (Forma TM, LLC., priority 2011, dated 2017).

How the values were obtained:
[1] = target: T1, Recombinant His-tagged NAMPT (Homo sapiens, UniProt P43490); assay: Biochemical inhibition assay: NAMPT enzymatic reaction, NMN quantified by mass spectrometry; details: 33 nM NAMPT, 1 μM NAM, 100 μM PRPP, 2.5 mM ATP, 30 minutes at room temperature; read-out: Biochem IC50
T1 construct: His; host or cells: E. coli
T1 sequence (P43490 whole entry): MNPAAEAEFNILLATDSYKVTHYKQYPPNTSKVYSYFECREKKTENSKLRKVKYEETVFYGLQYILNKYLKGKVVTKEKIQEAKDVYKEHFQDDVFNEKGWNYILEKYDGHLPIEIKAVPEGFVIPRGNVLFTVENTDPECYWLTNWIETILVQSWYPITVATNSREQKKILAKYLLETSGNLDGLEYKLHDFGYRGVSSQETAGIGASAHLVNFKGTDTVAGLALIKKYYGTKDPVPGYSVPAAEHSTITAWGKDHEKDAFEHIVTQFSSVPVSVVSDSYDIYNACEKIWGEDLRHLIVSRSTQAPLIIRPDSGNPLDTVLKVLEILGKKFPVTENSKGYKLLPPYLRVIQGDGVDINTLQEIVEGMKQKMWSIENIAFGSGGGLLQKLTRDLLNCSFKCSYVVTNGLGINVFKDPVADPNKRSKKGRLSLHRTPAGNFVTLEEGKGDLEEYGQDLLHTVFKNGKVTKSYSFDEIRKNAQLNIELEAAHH
In short: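 Reaction 30 min at room temperature with 1 μM NAM, 100 μM PRPP, 2.5 mM ATP (final), quenched with formic acid. NMN quantified by RapidFire electrospray MS, normalized to L-cystathionine; IC50 from percent inhibition versus DMSO.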

A2780 cells = assay: In-vitro cell proliferation assay (SRB, 72 hours); type: cell-based; details: Homo sapiens, sulforhodamine B (SRB) assay
In short: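 Viable cells measured by TCA fixation and SRB staining, absorbance 570 nm; % inhibition vs DMSO control after media-only background subtraction, interpolated between two bracketing concentrations.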

Compound	IC50 [1]	IC50 (A2780 cells)
O=C(NCCCCC1CCN(C(=O)c2ccc(N3CCOCC3)nc2)CC1)c1ccc2nccn2c1 [N-[4-(1-{[6-(morpholin-4-yl)pyridin-3-yl]carbonyl}piperidin-4-yl)butyl]imidazo[1,2-a]pyridine-6-carboxamide]	12.9 nM	5.9 nM
O=C(NCCCCC1CCN(C(=O)c2ccc(N3CCOCC3)nc2)CC1)c1cc2ccncc2s1 [N-[4-(1-{[6-(morpholin-4-yl)pyridin-3-yl]carbonyl}piperidin-4-yl)butyl]thieno[2,3-c]pyridine-2-carboxamide]	30.1 nM	13.1 nM
CC(C)c1ccc(C(=O)N2CCC(CCCCNC(=O)c3cc4cnccc4[nH]3)CC2)cn1 [N-[4-(1-{[6-(propan-2-yl)pyridin-3-yl]carbonyl}piperidin-4-yl)butyl]-1H-pyrrolo[3,2-c]pyridine-2-carboxamide]	86.7 nM	13.2 nM
CC(C)c1ccc(C(=O)N2CCC(CCCCNC(=O)c3ccc4nccn4c3)CC2)cn1 [N-[4-(1-{[6-(propan-2-yl)pyridin-3-yl]carbonyl}piperidin-4-yl)butyl]imidazo[1,2-a]pyridine-6-carboxamide]	38.7 nM	26.1 nM
CC(C)c1ccc(C(=O)N2CCC(CCCCNC(=O)c3cc4ccncc4s3)CC2)cn1 [N-[4-(1-{[6-(propan-2-yl)pyridin-3-yl]carbonyl}piperidin-4-yl)butyl]thieno[2,3-c]pyridine-2-carboxamide]	138 nM	100 to 1000 nM
O=C(NCCCCC1CCN(C(=O)c2ccc(C(F)(F)F)nc2)CC1)c1cc2cnccc2[nH]1 [N-[4-(1-{[6-(trifluoromethyl)pyridin-3-yl]carbonyl}piperidin-4-yl)butyl]-1H-pyrrolo[3,2-c]pyridine-2-carboxamide]	278 nM	47.6 nM
O=C(NCCCCC1CCN(C(=O)c2ccc(C(F)(F)F)nc2)CC1)c1ccc2nccn2c1 [N-[4-(1-{[6-(trifluoromethyl)pyridin-3-yl]carbonyl}piperidin-4-yl)butyl]imidazo[1,2-a]pyridine-6-carboxamide]	91.9 nM	93 nM
O=C(NCCCCC1CCN(C(=O)c2ccc(C(F)(F)F)nc2)CC1)c1cc2ccncc2s1 [N-[4-(1-{[6-(trifluoromethyl)pyridin-3-yl]carbonyl}piperidin-4-yl)butyl]thieno[2,3-c]pyridine-2-carboxamide]	90.3 nM	414 nM
O=C(NCCCCN1CCN(C(=O)c2ccccc2)CC1)c1cc2cnccc2[nH]1 [N-[4-(4-benzoylpiperazin-1-yl)butyl]-1H-pyrrolo[3,2-c]pyridine-2-carboxamide]	16 nM	94.7 nM
O=C(NCCCCCCOc1ccc(Cl)cc1)c1ccc2ncccc2c1 [N-[6-(4-chlorophenoxy)hexyl]quinoline-6-carboxamide]	25.9 nM	9890 nM
O=C(NCCC1CCN(S(=O)(=O)c2ccccc2)CC1)c1cc2cnccc2[nH]1 [N-{2-[1-(benzenesulfonyl)piperidin-4-yl]ethyl}-1H-pyrrolo[3,2-c]pyridine-2-carboxamide]	50.9 nM	1030 nM
Cn1ccc(S(=O)(=O)N2CCC(CCCCNC(=O)c3cc4cnccc4[nH]3)CC2)n1 [N-{4-[1-(1-methyl-1H-pyrazole-3-sulfonyl)piperidin-4-yl]butyl}-1H-pyrrolo[3,2-c]pyridine-2-carboxamide]	49.5 nM	6.8 nM
O=C(NCCCCC1CCN(S(=O)(=O)c2ccccc2)CC1)c1cc2cnccc2[nH]1 [N-{4-[1-(benzenesulfonyl)piperidin-4-yl]butyl}-1H-pyrrolo[3,2-c]pyridine-2-carboxamide]	24.9 nM	6.7 nM
CC(C)S(=O)(=O)N1CCC(CCCCNC(=O)c2cc3cnccc3[nH]2)CC1 [N-{4-[1-(propane-2-sulfonyl)piperidin-4-yl]butyl}-1H-pyrrolo[3,2-c]pyridine-2-carboxamide]	30.6 nM	23 nM
O=C(NCCCCC1CCN(S(=O)(=O)c2cccnc2)CC1)c1cc2cnccc2[nH]1 [N-{4-[1-(pyridine-3-sulfonyl)piperidin-4-yl]butyl}-1H-pyrrolo[3,2-c]pyridine-2-carboxamide]	16.1 nM	13.9 nM
O=C(NCCCCC1CCN(C(=O)c2cc3cnccc3[nH]2)CC1)c1cc2cnccc2[nH]1 [N-{4-[1-({1H-pyrrolo[3,2-c]pyridin-2-yl}carbonyl)piperidin-4-yl]butyl}-1H-pyrrolo[3,2-c]pyridine-2-carboxamide]	20.9 nM	11.3 nM
O=C(NCCCCC1CCN(C(=O)c2cc3cnccc3[nH]2)CC1)c1ccc2nccn2c1 [N-{4-[1-({1H-pyrrolo[3,2-c]pyridin-2-yl}carbonyl)piperidin-4-yl]butyl}imidazo[1,2-a]pyridine-6-carboxamide]	8.6 nM	13.1 nM
O=C(NCCCCC1CCN(C(=O)c2cc3cnccc3[nH]2)CC1)c1cc2ccncc2s1 [N-{4-[1-({1H-pyrrolo[3,2-c]pyridin-2-yl}carbonyl)piperidin-4-yl]butyl}thieno[2,3-c]pyridine-2-carboxamide]	6.9 nM	13.7 nM
O=C(NCCCCC1CCN(C(=O)c2ccc3nccn3c2)CC1)c1cc2cnccc2[nH]1 [N-{4-[1-({imidazo[1,2-a]pyridin-6-yl}carbonyl)piperidin-4-yl]butyl}-1H-pyrrolo[3,2-c]pyridine-2-carboxamide]	7.7 nM	13.8 nM
